According to patent US10633379B2, “Bromodomain inhibitors” (AbbVie Inc., priority 2016, dated 2020):

Key:
[1] = target: BRD4 (BDII_E352-M457) (Homo sapiens (Human), UniProt O60885); assay: TR-FRET bromodomain binding assay, BRD4 BDII; conditions: mean Ki, calculated from IC50, probe Kd and probe concentration
Summary of the method: (§1)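 His-tagged BRD4 BDI (12 nM, with 100 nM Alexa647 BET-inhibitor probe) or BDII (4 nM, 30 nM probe), plus 1 nM Eu-anti-His antibody, in pH 6.0 phosphate buffer with 2% DMSO. Equilibrated 1 h at room temperature and read by TR-FRET. IC50 from a 4-parameter fit was converted to Ki using probe Kd and probe concentration.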

[2] = target: BRD4 (BDI_K57-E168) (Homo sapiens (Human), UniProt O60885); assay: TR-FRET bromodomain binding assay, BRD4 BDI; conditions: mean Ki, calculated from IC50, probe Kd and probe concentration
Summary of the method: as §1

| SMILES | Ki [1] [nM] | Ki [2] [nM] |
| --- | --- | --- |
| Cc1cc(F)cc(Cl)c1Oc1ccc(C(C)(C)O)cc1-c1cn(C)c(=O)c2[nH]c(C(=O)NC(C)(C)C(F)(F)F)cc12 [Example 57, 4-[2-(2-chloro-4-fluoro-6-methylphenoxy)-5-(2-hydroxypropan-2-yl)phenyl]-6-methyl-7-oxo-N-(1,1,1-trifluoro-2-methylpropan-2-yl)-6,7-dihydro-1H-pyrrolo[2,3-c]pyridine-2-carboxamide] | 17.5 | 2890 |
| Cc1cc(F)cc(Cl)c1Oc1ncc(C(C)(C)O)cc1-c1cn(C)c(=O)c2[nH]c(C(=O)NC(C)(C)C(F)(F)F)cc12 [Example 58, 4-[2-(2-chloro-4-fluoro-6-methylphenoxy)-5-(2-hydroxypropan-2-yl)pyridin-3-yl]-6-methyl-7-oxo-N-(1,1,1-trifluoro-2-methylpropan-2-yl)-6,7-dihydro-1H-pyrrolo[2,3-c]pyridine-2-carboxamide] | 8.1 | 723 |
| Cc1cc(F)cc(C)c1Oc1ccc(C(C)(C)O)cc1-c1cn(C)c(=O)c2[nH]c(C(=O)NC3(C)CC3(F)F)cc12 (stereo not shown) [Example 60, N-(2,2-difluoro-1-methylcyclopropyl)-4-[2-(4-fluoro-2,6-dimethylphenoxy)-5-(2-hydroxypropan-2-yl)phenyl]-6-methyl-7-oxo-6,7-dihydro-1H-pyrrolo[2,3-c]pyridine-2-carboxamide] | 7.5 | 3510 |
| Cc1cc(F)cc(C)c1Oc1ncc(C(C)(C)O)cc1-c1cn(C)c(=O)c2[nH]c(C(=O)NC3(C)CC3(F)F)cc12 (stereo not shown) [Example 61, N-(2,2-difluoro-1-methylcyclopropyl)-4-[2-(4-fluoro-2,6-dimethylphenoxy)-5-(2-hydroxypropan-2-yl)pyridin-3-yl]-6-methyl-7-oxo-6,7-dihydro-1H-pyrrolo[2,3-c]pyridine-2-carboxamide] | 12 | 1580 |
| Cc1cc(F)cc(Cl)c1Oc1ncc(C(C)(C)O)cc1-c1cn(C)c(=O)c2[nH]c(C(=O)NC3(C)CC3(F)F)cc12 (stereo not shown) [Example 62, 4-[2-(2-chloro-4-fluoro-6-methylphenoxy)-5-(2-hydroxypropan-2-yl)pyridin-3-yl]-N-(2,2-difluoro-1-methylcyclopropyl)-6-methyl-7-oxo-6,7-dihydro-1H-pyrrolo[2,3-c]pyridine-2-carboxamide] | 10.2 | 1110 |
| Cc1cccc(Cl)c1Oc1ncc(C(C)(C)O)cc1-c1cn(C)c(=O)c2[nH]c(C(=O)NC34CC(C3)C4)cc12 [Example 63, N-(bicyclo[1.1.1]pentan-1-yl)-4-[2-(2-chloro-6-methylphenoxy)-5-(2-hydroxypropan-2-yl)pyridin-3-yl]-6-methyl-7-oxo-6,7-dihydro-1H-pyrrolo[2,3-c]pyridine-2-carboxamide] | 1.5 | 406 |
| CCNC(=O)c1cc2c(-c3cc(C(C)(C)O)c(F)cc3Oc3c(C)cccc3C)cn(C)c(=O)c2[nH]1 [Example 64, 4-[2-(2,6-dimethylphenoxy)-4-fluoro-5-(2-hydroxypropan-2-yl)phenyl]-N-ethyl-6-methyl-7-oxo-6,7-dihydro-1H-pyrrolo[2,3-c]pyridine-2-carboxamide] | 0.4 | 181 |
| CCNC(=O)c1cc2c(-c3cc(C(C)(C)O)c(F)cc3Oc3c(C)cc(F)cc3C)cn(C)c(=O)c2[nH]1 [Example 65, N-ethyl-4-[4-fluoro-2-(4-fluoro-2,6-dimethylphenoxy)-5-(2-hydroxypropan-2-yl)phenyl]-6-methyl-7-oxo-6,7-dihydro-1H-pyrrolo[2,3-c]pyridine-2-carboxamide] | 1.3 | 222 |
| CCNC(=O)c1cc2c(-c3cc(C(C)(O)CO)ccc3Oc3c(C)cccc3C)cn(C)c(=O)c2[nH]1 (stereo not shown) [Example 66, 4-[5-(1,2-dihydroxypropan-2-yl)-2-(2,6-dimethylphenoxy)phenyl]-N-ethyl-6-methyl-7-oxo-6,7-dihydro-1H-pyrrolo[2,3-c]pyridine-2-carboxamide] | 1.4 | 289 |
| CCNC(=O)c1cc2c(-c3cc(C(C)(O)CCO)ccc3Oc3c(C)cccc3C)cn(C)c(=O)c2[nH]1 (stereo not shown) [Example 67, 4-[5-(2,4-dihydroxybutan-2-yl)-2-(2,6-dimethylphenoxy)phenyl]-N-ethyl-6-methyl-7-oxo-6,7-dihydro-1H-pyrrolo[2,3-c]pyridine-2-carboxamide] | 1.1 | 259 |
| CCNC(=O)c1cc2c(-c3cc(C(C)(C)O)ccc3Oc3c(C)cccc3C(F)F)cn(C)c(=O)c2[nH]1 [Example 70, 4-{2-[2-(difluoromethyl)-6-methylphenoxy]-5-(2-hydroxypropan-2-yl)phenyl}-N-ethyl-6-methyl-7-oxo-6,7-dihydro-1H-pyrrolo[2,3-c]pyridine-2-carboxamide] | 3.7 | 1340 |
| Cc1cccc(C(F)F)c1Oc1ccc(C(C)(C)O)cc1-c1cn(C)c(=O)c2[nH]c(C(=O)NC(C)(C)C)cc12 [Example 71, N-tert-butyl-4-{2-[2-(difluoromethyl)-6-methylphenoxy]-5-(2-hydroxypropan-2-yl)phenyl}-6-methyl-7-oxo-6,7-dihydro-1H-pyrrolo[2,3-c]pyridine-2-carboxamide] | 7.5 | 2310 |
| CCNC(=O)c1cc2c(-c3cc(C(C)(C)O)ccc3Oc3c(C)cc(Br)cc3C)cn(C)c(=O)c2[nH]1 [Example 72, 4-[2-(4-bromo-2,6-dimethylphenoxy)-5-(2-hydroxypropan-2-yl)phenyl]-N-ethyl-6-methyl-7-oxo-6,7-dihydro-1H-pyrrolo[2,3-c]pyridine-2-carboxamide] | 1.3 | 794 |
| CCNC(=O)c1cc2c(-c3cc(C(C)(C)O)ccc3Oc3c(C)cc(C#N)cc3C)cn(C)c(=O)c2[nH]1 [Example 73, 4-[2-(4-cyano-2,6-dimethylphenoxy)-5-(2-hydroxypropan-2-yl)phenyl]-N-ethyl-6-methyl-7-oxo-6,7-dihydro-1H-pyrrolo[2,3-c]pyridine-2-carboxamide] | 1.5 | 417 |
| CCNC(=O)c1cc2c(-c3cc(C(C)(C)O)ccc3Oc3c(C)ccnc3C)cn(C)c(=O)c2[nH]1 [Example 74, 4-{2-[(2,4-dimethylpyridin-3-yl)oxy]-5-(2-hydroxypropan-2-yl)phenyl}-N-ethyl-6-methyl-7-oxo-6,7-dihydro-1H-pyrrolo[2,3-c]pyridine-2-carboxamide] | 3 | 551 |
| Cc1cc(F)cc(C)c1Oc1ccc(C(C)(C)O)cc1-c1cn(C)c(=O)c2[nH]c(C(=O)NC34CC(C3)C4)cc12 [Example 75, N-(bicyclo[1.1.1]pentan-1-yl)-4-[2-(4-fluoro-2,6-dimethylphenoxy)-5-(2-hydroxypropan-2-yl)phenyl]-6-methyl-7-oxo-6,7-dihydro-1H-pyrrolo[2,3-c]pyridine-2-carboxamide] | 2.9 | 743 |
| Cc1cccc(C)c1Oc1ccc(C(C)(C)O)nc1-c1cn(C)c(=O)c2[nH]c(C(=O)NC(C)(C)C)cc12 [Example 76, N-tert-butyl-4-[3-(2,6-dimethylphenoxy)-6-(2-hydroxypropan-2-yl)pyridin-2-yl]-6-methyl-7-oxo-6,7-dihydro-1H-pyrrolo[2,3-c]pyridine-2-carboxamide] | 8.7 | 927 |
